Laboratory results from PubChem BioAssay (NCI).
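1) Cells in 96-well plates. 2) Compound, 48 h, 5 concentrations. 3) Linear interpolation between surrounding doses. 4) Unreached endpoint = highest concentration. At the GI50, growth is halved. TGI marks complete inhibition of growth.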

Legend:
Assay in all cases: NCI anticancer screen, dose series, 48 h
[1] = test system: EKVX NSCLC
[2] = test system: K-562 leukemia
[3] = test system: MDA-MB-231 breast
[4] = test system: U251 CNS
[5] = test system: SF-268 CNS
[6] = test system: SN12C renal
[7] = test system: 786-0 renal
[8] = test system: SK-MEL-28 melanoma
[9] = test system: SR leukemia
[10] = test system: SNB-75 CNS
[11] = test system: SK-MEL-5 melanoma
[12] = test system: UO-31 renal
[13] = test system: HL-60(TB) leukemia
[14] = test system: NCI-H226 lung
[15] = test system: OVCAR-8 ovarian
[16] = test system: M14 melanoma
[17] = test system: RXF 393 renal
[18] = test system: COLO 205 colon
[19] = test system: HS 578T breast
[20] = test system: HT29 colon
[21] = test system: OVCAR-3 ovarian
[22] = test system: HOP-92 NSCLC
[23] = test system: NCI/ADR-RES ovarian
[24] = test system: RPMI-8226 leukemia
[25] = test system: TK-10 renal
[26] = test system: CAKI-1 renal
[27] = test system: SW-620 colon
[28] = test system: SNB-19 CNS
[29] = test system: A549 NSCLC
[30] = test system: HCT-116 colon
[31] = test system: LOX IMVI melanoma
[32] = test system: A498 renal
[33] = test system: MOLT-4 leukemia
[34] = test system: UACC-257 melanoma
[35] = test system: SK-OV-3 ovarian
[36] = test system: HCT-15 colon
[37] = test system: ACHN renal
[38] = test system: OVCAR-5 ovarian
[39] = test system: DU-145 prostate
[40] = test system: BT-549 breast
[41] = test system: OVCAR-4 ovarian
[42] = test system: KM12 colon
[43] = test system: MDA-MB-435
[44] = test system: HOP-62 NSCLC
[45] = test system: MDA-N
[46] = test system: PC-3 prostate
[47] = test system: SF-295 CNS
[48] = test system: UACC-62 melanoma
[49] = test system: NCI-H460 lung
[50] = test system: SK-MEL-2 melanoma
[51] = test system: SF-539 CNS
[52] = test system: T-47D breast
[53] = test system: IGROV1 ovarian
[54] = test system: MALME-3M melanoma
[55] = test system: MCF7 breast
[56] = test system: NCI-H522 lung
[57] = test system: CCRF-CEM leukemia
[58] = test system: NCI-H23 lung
[59] = test system: HCC-2998 colon

## C1CC[N-]CC1.CC(=N\O)/C(C)=N/O.CC(=N\O)/C(C)=N/O.C[CH-]C(C)O.[Co+2]
[1]
  GI50: 35.7 µM
  TGI: > 100 µM
[2]
  GI50: 19.3 µM
  TGI: 45.8 µM
[3]
  GI50: 27.2 µM
  TGI: 64 µM
[4]
  GI50: 17.7 µM
  TGI: 31.5 µM
[5]
  GI50: 29.4 µM
  TGI: 95 µM
[6]
  GI50: 40.1 µM
  TGI: > 100 µM
[7]
  GI50: 33.9 µM
  TGI: > 100 µM
[8]
  GI50: 29.2 µM
  TGI: 61.2 µM
[9]
  GI50: 18.2 µM
  TGI: 45 µM
[10]
  GI50: 19.5 µM
  TGI: 71.4 µM
[11]
  GI50: 20.1 µM
  TGI: 43.1 µM
[12]
  GI50: 42.9 µM
  TGI: > 100 µM
[13]
  GI50: 14.5 µM
  TGI: 45.7 µM
[14]
  GI50: 26.2 µM
  TGI: 69 µM
[15]
  GI50: 21.2 µM
  TGI: 59.6 µM
[16]
  GI50: 20.8 µM
  TGI: 45.1 µM
[17]
  GI50: 15 µM
  TGI: 43.8 µM
[18]
  GI50: 14.9 µM
  TGI: 29 µM
[19]
  GI50: 28 µM
  TGI: 83.1 µM
[20]
  GI50: 34.3 µM
  TGI: > 100 µM
[21]
  GI50: 17.4 µM
  TGI: 51.7 µM
[22]
  GI50: 19.4 µM
  TGI: 48.6 µM
[23]
  GI50: 54.2 µM
  TGI: > 100 µM
[24]
  GI50: 18.8 µM
  TGI: 43.4 µM
[25]
  GI50: 23.8 µM
  TGI: 60.4 µM
[26]
  GI50: 24 µM
  TGI: 57.8 µM
[27]
  GI50: 23.5 µM
  TGI: 66.8 µM
[28]
  GI50: 49.6 µM
  TGI: > 100 µM
[29]
  GI50: 47.3 µM
  TGI: > 100 µM
[30]
  GI50: 18.2 µM
  TGI: 36.7 µM
[31]
  GI50: 17.8 µM
  TGI: 33.7 µM
[32]
  GI50: 23.9 µM
  TGI: 73.9 µM
[33]
  GI50: 17.4 µM
  TGI: 42.2 µM
[34]
  GI50: 18.2 µM
  TGI: 40.2 µM
[35]
  GI50: 89 µM
  TGI: > 100 µM
[36]
  GI50: 30 µM
  TGI: > 100 µM
[37]
  GI50: 23.8 µM
  TGI: 81.2 µM
[38]
  GI50: 35.1 µM
  TGI: > 100 µM
[39]
  GI50: 81.1 µM
  TGI: > 100 µM
[40]
  GI50: 28.5 µM
  TGI: 79.7 µM
[41]
  GI50: 33.1 µM
  TGI: > 100 µM
[42]
  GI50: 34.3 µM
  TGI: > 100 µM
[43]
  GI50: 23.1 µM
  TGI: 51.7 µM
[44]
  GI50: 21.7 µM
  TGI: 85.9 µM
[45]
  GI50: 26.6 µM
  TGI: 77 µM
[46]
  GI50: 26.7 µM
  TGI: 70.8 µM
[47]
  GI50: 88.5 µM
  TGI: > 100 µM
[48]
  GI50: 15.6 µM
  TGI: 29 µM
[49]
  GI50: 16.8 µM
  TGI: 30.5 µM
[50]
  GI50: 17.9 µM
  TGI: 34.9 µM
[51]
  GI50: 24 µM
  TGI: 94.4 µM
[52]
  GI50: 12.6 µM
  TGI: 41.1 µM
[53]
  GI50: 31.7 µM
  TGI: > 100 µM
[54]
  GI50: 15.2 µM
  TGI: 29.7 µM
[55]
  GI50: 24.4 µM
  TGI: 57.8 µM
[56]
  GI50: 10.3 µM
  TGI: 22 µM

## CC(C)(C)OC(=O)NNCC(O)COc1ccccc1 (configuration not stated)
[1]
  TGI: > 100 µM
[2]
  TGI: > 100 µM
[3]
  TGI: > 100 µM
[4]
  TGI: > 100 µM
[5]
  TGI: > 100 µM
[6]
  TGI: > 100 µM
[7]
  TGI: > 100 µM
[8]
  TGI: > 100 µM
[9]
  TGI: > 100 µM
[11]
  TGI: > 100 µM
[12]
  TGI: > 100 µM
[13]
  TGI: > 100 µM
[14]
  TGI: > 100 µM
[15]
  TGI: > 100 µM
[16]
  TGI: > 100 µM
[17]
  TGI: > 100 µM
[18]
  TGI: > 100 µM
[19]
  TGI: > 100 µM
[57]
  TGI: > 100 µM
[58]
  TGI: > 100 µM
[20]
  TGI: > 100 µM
[21]
  TGI: > 100 µM
[22]
  TGI: > 100 µM
[23]
  TGI: > 100 µM
[24]
  TGI: > 100 µM
[25]
  TGI: > 100 µM
[26]
  TGI: > 100 µM
[27]
  TGI: > 100 µM
[28]
  TGI: > 100 µM
[29]
  TGI: > 100 µM
[30]
  TGI: > 100 µM
[31]
  TGI: > 100 µM
[32]
  TGI: > 100 µM
[33]
  TGI: > 100 µM
[34]
  TGI: > 100 µM
[35]
  TGI: > 100 µM
[59]
  TGI: > 100 µM
[36]
  TGI: > 100 µM
[37]
  TGI: > 100 µM
[38]
  TGI: > 100 µM
[39]
  TGI: > 100 µM
[40]
  TGI: > 100 µM
[41]
  TGI: > 100 µM
[43]
  TGI: > 100 µM
[44]
  TGI: > 100 µM
[45]
  TGI: > 100 µM
[46]
  TGI: > 100 µM
[47]
  TGI: > 100 µM
[48]
  TGI: > 100 µM
[49]
  TGI: > 100 µM
[50]
  TGI: > 100 µM
[51]
  TGI: > 100 µM
[52]
  TGI: > 100 µM
[53]
  TGI: > 100 µM
[54]
  TGI: > 100 µM
[55]
  TGI: > 100 µM
[56]
  TGI: > 100 µM

## O=C1Nc2ccccc2SC1=C(C(=O)c1ccccc1)C(=O)c1ccccc1
[1]
  TGI: > 100 µM
[2]
  TGI: > 100 µM
[3]
  TGI: > 92.8 µM
[4]
  TGI: > 100 µM
[5]
  TGI: > 100 µM
[6]
  TGI: > 89.8 µM
[7]
  TGI: > 100 µM
[8]
  TGI: > 100 µM
[9]
  TGI: > 100 µM
[10]
  TGI: > 94.6 µM
[11]
  TGI: > 100 µM
[12]
  TGI: > 100 µM
[13]
  TGI: 0.82 µM
[14]
  TGI: > 87.5 µM
[15]
  TGI: > 100 µM
[16]
  TGI: > 100 µM
[17]
  TGI: > 100 µM
[18]
  TGI: > 88 µM
[19]
  TGI: > 100 µM
[57]
  TGI: 77.4 µM
[58]
  TGI: > 90.8 µM
[20]
  TGI: > 100 µM
[21]
  TGI: 41.5 µM
[22]
  TGI: 99.9 µM
[23]
  TGI: > 100 µM
[24]
  TGI: > 100 µM
[25]
  TGI: > 100 µM
[26]
  TGI: > 100 µM
[27]
  TGI: > 100 µM
[28]
  TGI: > 100 µM
[29]
  TGI: > 100 µM
[30]
  TGI: > 100 µM
[31]
  TGI: > 100 µM
[32]
  TGI: > 80.3 µM
[34]
  TGI: > 88 µM
[35]
  TGI: 65.3 µM
[59]
  TGI: 63.8 µM
[36]
  TGI: > 100 µM
[37]
  TGI: > 100 µM
[38]
  TGI: > 91.1 µM
[39]
  TGI: > 100 µM
[40]
  TGI: > 90.2 µM
[41]
  TGI: > 100 µM
[42]
  TGI: > 100 µM
[43]
  TGI: 55.6 µM
[44]
  TGI: > 100 µM
[45]
  TGI: 48.8 µM
[46]
  TGI: > 100 µM
[47]
  TGI: 57.5 µM
[48]
  TGI: 51.6 µM
[49]
  TGI: > 86.8 µM
[50]
  TGI: 67.1 µM
[51]
  TGI: > 100 µM
[52]
  TGI: > 100 µM
[53]
  TGI: > 100 µM
[54]
  TGI: > 100 µM
[55]
  TGI: > 100 µM
[56]
  TGI: 87.1 µM
